Measurements as given in patent publication US8975251B2, “Methods of improving cognitive functions” (Bar-Ilan University, priority 2009, dated 2015).
“Also recorded” adds a separate entry of the source. Where a name gives a salt, the structure may show the parent alone.

What was measured:
[1] = tested on: PCP-induced reversal learning deficit; test: PCP-induced reversal learning task in rats; assay type: in vivo, rat
Text: Antipsychotic drugs: BL-1020 (perphenazine 4-aminobutyrate, mesylate salt; BioLineRx Ltd., Israel; administered per os); risperidone (Sigma, UK; administered intra-peritoneally); and perphenazine (Sigma, Israel; administered per os).
GABAA antagonists: picrotoxin (Sigma, UK; administered intra-peritoneally); and bicuculline (Sigma, UK; administered intra-peritoneally).
Female hooded-Lister rats (Charles River, UK) were housed in groups of five under standard laboratory conditions under a 12 hr diurnal cycle. Rats were maintained at approx 85% of free-feeding body weight average (250 grams) for the duration of the study.
Following habituation to the operant chambers, rats were trained to respond for food on an FR1 (Fixed Ratio 1) schedule of reinforcement with active levers active, as described by Abdul-Monim et al. (J. Psychopharmacology 17: 57-65, 2003). When a proper response for food was established the rats were trained to press either the left or right lever (only one of levers was active) for food delivery. The active lever was varied from day to day using a pseudorandom Gellerman schedule, which randomly assigns either the left or right lever as active, thus avoiding generation of a lever bias. Each session lasted 20 minutes and counts were recorded on each lever.
Following completion of the first phase of training (within about two weeks) the rats were trained to respond ter food according to the position of a visual cue (a lit LED). Half of the rats were trained to press the lever under the lit LED in order to receive a food reward. The other half of the rats were trained on the opposite contingency (i.e., to press the lever under the non-lit LED). Each training session began with illumination of the house-light. After three seconds both levers, together with the visual cue, were presented. The cue was presented for one second. […] The levers were then retracted and the house light was extinguished for a three-second time-out period, during which the pellet was consumed (if a correct response had been made). The house-light was then turned on again and the cycle repeated. Following 128 lever presses (which lasted approximately 30 minutes) the training session was terminated.
Each rat had one training session per day. Rats were required to make at least 115 responses on the correct lever (90% correct responding) on at least three consecutive days (which was generally achieved within two weeks). The contingency (visual cue, i.e. LED on or off, relative to active lever) remained constant during this period, though the position of the active lever varied from day to day according to a pseudo-random Gellerman schedule.
Subsequently, rats were trained until they again reached criterion on the opposite contingency (which was generally achieved within two weeks)). Rats achieved criterion at the same rate irrespective of whether they responded to one rule or the other. […]
Following a 7 day drug (PCP)-free period the rats were treated with test agents (antipsychotic drugs and GABAA-receptor antagonists). Sixty minutes later the rats were exposed for five-minutes (“initial phase”) to the same contingency (cue position relative to active lever) as was during the operant training session and their responses (pressing on correct and incorrect levers) were recorded. Following a two-minutes recess the animals were exposed for five-minutes to a reversed contingency (“reversal phase”) during which their responses (pressing on correct and incorrect levers) were recorded. […]

[2] = tested on: patients having acute exacerbation of schizophrenia; test: Clinical trial, Brief Assessment of Cognition in Schizophrenia (BACS); assay type: in vivo, human; details: for BACS mean change from baseline at Day 42, Mean (SD): 42 days; for BACS Difference in LS-mean vs. Risperidone (ANCOVA) / BACS Difference in LS-means vs. Placebo (ANCOVA): Day 42; for cognitive functions as compared to the placebo: schizophrenic patients, human clinical trial
Protocol: The trial was conducted at forty sites located in the USA, Europe and India. For the trial 363 patients were recruited and randomized equally. Drugs (BL-1020, 10 mg/day; BL-1020, 20-30 mg/day; risperidone, 2-8 mg/day and placebo) have been administered to designated patients (double blinded) daily over a period of 42 days.
Key secondary efficacy measures included the Clinical Global Impression of Severity (CGI-S), the Clinical Global Impression of Change (CGI-C) from baseline, and effect on cognition as measured by the Brief Assessment of Cognition in Schizophrenia (BACS). Risperidone at a dose of 2-8 mg was included as a positive control to validate the study results.
Assessments of cognitive functions of treated patients have been performed on day zero (baseline) and on day 42 (end of study), using the test battery designed for use in patients with schizophrenia [Richard Keefe (Ed.), Brief Assessment of Cognition in Schizophrenia (BACS) Version 3.0, Duke University Medical Center, 1999; and Keefe et al., Schizophrenia Research, 68: 283-297, 2004]. The battery consists of brief assessments of processing speed, reasoning and problem solving and verbal and working memory. A composite score is obtained by summing the z-scores of six measures (verbal memory, digit sequencing, token motor task, fluency, symbol coding and Tower of London).

## OCCN1CCN(CCCN2c3ccccc3Sc3ccc(Cl)cc32)CC1 [perphenazine]
[1]; perphenazine 2.49 mg/kg per os (equivalent to perphenazine moiety in 3 mg/kg BL-1020)
  effect on PCP-induced reversal learning deficit (percent correct response): did not significantly improve; also recorded: failed to improve cognitive functions

## picrotoxin
[1]; picrotoxin 0.5 mg/kg co-administered with BL-1020 3 mg/kg, p<0.001
  effect on BL-1020 improvement of PCP-induced reversal learning deficit: negated the BL-1020 effect
[1]; picrotoxin 0.25, 0.5 and 1 mg/kg intra-peritoneally
  effect on PCP-induced reversal learning deficit (percent correct response): did not significantly improve

## NCCCC(=O)OCCN1CCN(CCCN2c3ccccc3Sc3ccc(Cl)cc32)CC1 [BL-1020, 4-amino-butyric acid 2-{4-[3-(2-chloro-phenothiazin-10-yl)-propyl]piperazin-1-yl}-ethyl ester]
[1]; BL-1020 3 mg/kg per os, 60 min before task, p<0.01, 3 mg/kg
  effect on PCP-induced reversal learning deficit (percent correct response): significantly improved; also recorded: significant improvement
[2]; BL-1020 10 mg/day group, day 0, n = 90
  BACS test mean score at Baseline, Mean (SD): 16.7 (15.5)
[2]; BL-1020 10 mg/day
  BACS mean change from baseline at Day 42, Mean (SD): 5.1 (7.1)
  BACS Difference in LS-mean vs. Risperidone (ANCOVA): 0.11
  BACS Difference in LS-means vs. Placebo (ANCOVA): 0.63
[2]; BL-1020 30 mg/day group, day 0, n = 89
  BACS test mean score at Baseline, Mean (SD): 15.3 (15.5)
[2]; BL-1020 30 mg/day
  BACS mean change from baseline at Day 42, Mean (SD): 8.3 (8.5)
  BACS Difference in LS-mean vs. Risperidone (ANCOVA): 3.40
  BACS Difference in LS-means vs. Placebo (ANCOVA): 3.92
[2]; BL-1020 high dose 20-30 mg/day, after 42 days
  BACS score increase: 8.3 points
[2]
  cognitive functions as compared to the placebo: significantly improved

## Cc1nc2n(c(=O)c1CCN1CCC(c3noc4cc(F)ccc34)CC1)CCCC2 [Risperidone, risperidone, reference compound]
[2]; Risperidone 8 mg/day group, day 0, n = 91
  BACS test mean score at Baseline, Mean (SD): 13.5 (12.3)
[2]; Risperidone 8 mg/day
  BACS mean change from baseline at Day 42, Mean (SD): 5.7 (6.2)
  BACS Difference in LS-means vs. Placebo (ANCOVA): 0.52
[2]
  cognitive functions as compared to the placebo: failed to improve cognitive functions

## c1ccc(C2(N3CCCCC3)CCCCC2)cc1 [PCP, phencyclidine hydrochloride]
[1]; PCP 2 mg/kg intra-peritoneally twice daily for 7 days, p<0.01
  percent correct responding animals in the reversal learning task: significantly reduced
